{"source": "patent US20190216779A1", "about": "“USE OF NEUROKININ-1 ANTAGONISTS TO TREAT A VARIETY OF PRURITIC CONDITIONS” (MENLO THERAPEUTICS INC., priority 2016, published 2019)", "key": {"[1]": {"settings": "cited from earlier work"}, "[2]": {"assay": "In vitro skin permeation of serlopitant in topical formulations, Franz diffusion cell", "type": "in vitro ADME", "settings": "topical formulations B and C, human skin, 37° C., LC-MS/MS", "procedure": "In vitro skin permeation of serlopitant in topical formulations A-D was evaluated using a Franz diffusion cell. FIG. 1 illustrates a Franz diffusion cell. A Franz diffusion cell having a circular permeation area of 4.15 cm^2 and a receptor chamber volume of 19 mL was set up with a thermo-regulated outer water jacket to maintain the temperature at 37° C. The receptor chamber was filled with 19 mL 1×PBS (pH 7.5) containing 10% ethanol and 1% Tween® 80.\nHuman skin was pre-treated to remove all subcutaneous fat and was cleaned with 70% ethanol before use. The skin was visually inspected to ensure that it was free of any surface irregularity or small holes and was equally divided into four pieces. The skin was then mounted onto the receptor chamber with the stratum corneum side facing up. […]\nAll samples were processed by solid-phase extraction (SPE) before LC-MS/MS analysis. […] Serlopitant concentrations in samples resulting from formulations A-D were determined by comparison to the standard. Serlopitant was not detected in samples resulting from topical formulations A and D, as expected. […] After an initial lag, serlopitant was detected by LC-MS/MS in the receptor chamber at 6 hours.\nThe amount of serlopitant retained in the skin was determined at the end of the experiment. […] Extracted serlopitant was quantified by LC-MS/MS. […]"}, "[3]": {"assay": "Solubility test of serlopitant in Franz cell receptor solution", "type": "physicochemical"}, "[4]": {"system": "subjects with chronic pruritus", "assay": "Phase II randomized, double-blind, placebo-controlled clinical study of serlopitant in chronic pruritus", "type": "in vivo, human", "settings": "for 4-point responder rate (proportion of subjects achieving ≥4-point improvement on a 10-point scale) in the average VAS itch score: Week 6, placebo 26%; for relief of itch in the NRS score compared to placebo (secondary efficacy endpoint; data not shown) / relief of itch in the VAS score compared to placebo (primary efficacy endpoint): Weeks 4, 5 and 6", "procedure": "A well-controlled human clinical trial assessing the efficacy of serlopitant in the treatment of chronic pruritus was approved by an Institutional Review Board and was conducted in accordance with the International Conference on Harmonisation (ICH) Guidelines for Good Clinical Practices, the U.S. Code of Federal Regulations, the Health Insurance Portability and Accountability Act (HIPAA), and any local regulatory requirements. The study was a Phase II randomized, double-blind, parallel-group, placebo-controlled, multicenter trial designed to evaluate the efficacy and safety of serlopitant versus placebo in subjects with chronic pruritus.\nSubjects were randomized to receive a 0.25 mg, 1 mg or 5 mg tablet of serlopitant or a matching placebo tablet. Subjects took one tablet of serlopitant or placebo once daily by mouth for a total of 6 weeks following a loading dose of 3 tablets on the first day of treatment. The maximum study duration for each subject was about 12 weeks and included a screening period of up to 2 weeks, a treatment period of 6 weeks, and a follow-up period of 4 weeks. The screening period was extended up to 44 days if a washout period from any prohibited medications was required."}, "[5]": {"system": "subjects with chronic pruritus and prurigo nodularis", "assay": "Phase II randomized, double-blind, placebo-controlled clinical study of serlopitant in chronic pruritus due to prurigo nodularis", "type": "in vivo, human", "settings": "for Mean difference Serlopitant − Placebo (SE) in change of average itch VAS score from baseline by repeated measures analysis: 5 mg once daily oral, 10 cm VAS", "procedure": "A well-controlled human clinical trial assessing the efficacy of serlopitant in the treatment of pruritus associated with prurigo nodularis (PN) was approved by an Institutional Review Board and was conducted in accordance with the ICH Guidelines for Good Clinical Practices. German regulations on recordkeeping of subject information, and any local regulatory requirements. The study was a Phase II randomized, double-blind, placebo-controlled, multicenter trial designed to evaluate the efficacy and safety of serlopitant versus placebo in subjects with PN. […] The subjects had chronic pruritus due to PN.\nSubjects were randomized to receive either a 5-mg tablet of serlopitant or a matching placebo tablet. Subjects took a tablet of serlopitant or placebo once daily by mouth for 8 weeks following a loading dose of 3 tablets on the first day of treatment. The maximum study duration for each subject was about 14 weeks and included a screening period of up to 4 weeks, a treatment period of 8 weeks, and a follow-up period of 2 weeks.\nAt Baseline, the average itch VAS score (average itch over the past 24 hours) for the serlopitant group and the placebo group was 7.88 and 7.92, respectively. […] Furthermore, a once-daily 5 mg dose of serlopitant led to a 4-point responder rate (the proportion of subjects achieving ≥4-point improvement on a 10-point scale) of 54% with respect to the average itch VAS score at Week 8 compared to 25% for placebo."}, "[6]": {"settings": "all three doses (0.25 mg, 1 mg, 5 mg once daily, 6 weeks)"}}, "data": [{"smiles": "C[C@@H](O[C@H]1CC[C@@H]2CN(C3=CC(=O)CC3)C[C@H]2[C@@H]1c1ccc(F)cc1)c1cc(C(F)(F)F)cc(C(F)(F)F)c1", "note": "[Form I]", "values": [{"measurement": "thermodynamic stability of polymorph", "setting": "[1]; Form I compared with Form II", "result": "thermodynamically more stable below 70 °C"}, {"measurement": "hygroscopicity", "setting": "[1]; all tested relative humidity conditions", "result": "non-hygroscopic"}]}, {"smiles": "C[C@@H](O[C@H]1CC[C@@H]2CN(C3=CC(=O)CC3)C[C@H]2[C@@H]1c1ccc(F)cc1)c1cc(C(F)(F)F)cc(C(F)(F)F)c1", "note": "[serlopitant, 3-[(3aR,4R,5S,7aS)-5-[(1R)-1-[3,5-bis(trifluoromethyl)phenyl]ethoxy]-4-(4-fluorophenyl)octahydro-2H-isoindol-2-yl]cyclopent-2-en-1-one]", "values": [{"measurement": "time at which serlopitant was detected in the receptor chamber after an initial lag", "setting": "[2]", "result": 6, "unit": "h"}, {"measurement": "solubility in receptor solution", "setting": "[3]; 1×PBS (pH 7.5) containing 10% ethanol and 1% Tween 80, 1 hour of incubation at 37° C.", "result": "remained soluble at concentrations of 0.5, 5 and 50 ug/mL"}, {"measurement": "change of solubility if Tween 80 was not used", "setting": "[3]; receptor solution without Tween 80", "result": "decreased significantly"}, {"measurement": "change of solubility if ethanol was not used", "setting": "[3]; receptor solution without ethanol", "result": "decreased slightly"}, {"measurement": "Least squares mean % change from baseline in average VAS itch score", "setting": "[4]; 0.25 mg once daily oral, Week 1, n = 64", "result": "−9.1 ± 3.9", "unit": "%"}, {"measurement": "Least squares mean % change from baseline in average VAS itch score", "setting": "[4]; 0.25 mg once daily oral, Week 2, n = 64", "result": "−14.9 ± 4.0", "unit": "%"}, {"measurement": "Least squares mean % change from baseline in average VAS itch score", "setting": "[4]; 0.25 mg once daily oral, Week 3, n = 64", "result": "−21.4 ± 4.0", "unit": "%"}, {"measurement": "Least squares mean % change from baseline in average VAS itch score", "setting": "[4]; 0.25 mg once daily oral, Week 4, n = 64", "result": "−29.0 ± 4.0", "unit": "%"}, {"measurement": "Least squares mean % change from baseline in average VAS itch score", "setting": "[4]; 0.25 mg once daily oral, Week 5, n = 64", "result": "−32.4 ± 4.0", "unit": "%"}, {"measurement": "Least squares mean % change from baseline in average VAS itch score", "setting": "[4]; 0.25 mg once daily oral, Week 6, n = 64", "result": "−34.1 ± 4.1", "unit": "%"}, {"measurement": "Least squares mean % change from baseline in average VAS itch score", "setting": "[4]; 1 mg once daily oral, Week 1, n = 65", "result": "−11.8 ± 3.9", "unit": "%"}, {"measurement": "Least squares mean % change from baseline in average VAS itch score", "setting": "[4]; 1 mg once daily oral, Week 2, n = 65", "result": "−22.0 ± 4.0", "unit": "%"}, {"measurement": "Least squares mean % change from baseline in average VAS itch score", "setting": "[4]; 1 mg once daily oral, Week 3, n = 65", "result": "−30.2 ± 4.0", "unit": "%"}, {"measurement": "Least squares mean % change from baseline in average VAS itch score", "setting": "[4]; 1 mg once daily oral, Week 4, n = 65, p < 0.05 vs placebo", "result": "−33.1 ± 4.0", "unit": "%"}, {"measurement": "Least squares mean % change from baseline in average VAS itch score", "setting": "[4]; 1 mg once daily oral, Week 5, n = 65, p < 0.05 vs placebo", "result": "−38.0 ± 4.1", "unit": "%"}, {"measurement": "Least squares mean % change from baseline in average VAS itch score", "setting": "[4]; 1 mg once daily oral, Week 6, n = 65, p < 0.05 vs placebo", "result": "−41.4 ± 4.0", "unit": "%"}, {"measurement": "Least squares mean % change from baseline in average VAS itch score", "setting": "[4]; 5 mg once daily oral, Week 1, n = 64", "result": "−12.0 ± 3.9", "unit": "%"}, {"measurement": "Least squares mean % change from baseline in average VAS itch score", "setting": "[4]; 5 mg once daily oral, Week 2, n = 64", "result": "−20.3 ± 4.0", "unit": "%"}, {"measurement": "Least squares mean % change from baseline in average VAS itch score", "setting": "[4]; 5 mg once daily oral, Week 3, n = 64", "result": "−28.8 ± 4.0", "unit": "%"}, {"measurement": "Least squares mean % change from baseline in average VAS itch score", "setting": "[4]; 5 mg once daily oral, Week 4, n = 64, p < 0.05 vs placebo", "result": "−34.2 ± 4.0", "unit": "%"}, {"measurement": "Least squares mean % change from baseline in average VAS itch score", "setting": "[4]; 5 mg once daily oral, Week 5, n = 64, p < 0.05 vs placebo", "result": "−37.3 ± 4.0", "unit": "%"}, {"measurement": "Least squares mean % change from baseline in average VAS itch score", "setting": "[4]; 5 mg once daily oral, Week 6, n = 64, p < 0.05 vs placebo", "result": "−42.5 ± 4.1", "unit": "%"}, {"measurement": "intensity of all adverse events", "setting": "[4]; [6]", "result": "mild or moderate intensity"}, {"measurement": "most common treatment-emergent adverse events", "setting": "[4]; [6]", "result": "diarrhea, somnolence and headache in the low single-digit percent"}, {"measurement": "tolerability and safety profile", "setting": "[4]; [6]", "result": "well tolerated and exhibited an excellent safety profile"}, {"measurement": "4-point responder rate (proportion of subjects achieving ≥4-point improvement on a 10-point scale) in the average VAS itch score", "setting": "[4]; once-daily 1 mg dose", "result": 42, "unit": "%"}, {"measurement": "relief of itch in the NRS score compared to placebo (secondary efficacy endpoint; data not shown)", "setting": "[4]; once-daily 1 mg dose", "result": "statistically significant improvement in relief of itch"}, {"measurement": "relief of itch in the VAS score compared to placebo (primary efficacy endpoint)", "setting": "[4]; once-daily 1 mg dose", "result": "statistically significant improvement in relief of itch"}, {"measurement": "4-point responder rate (proportion of subjects achieving ≥4-point improvement on a 10-point scale) in the average VAS itch score", "setting": "[4]; once-daily 5 mg dose", "result": 53, "unit": "%"}, {"measurement": "relief of itch in the NRS score compared to placebo (secondary efficacy endpoint; data not shown)", "setting": "[4]; once-daily 5 mg dose", "result": "statistically significant improvement in relief of itch"}, {"measurement": "relief of itch in the VAS score compared to placebo (primary efficacy endpoint)", "setting": "[4]; once-daily 5 mg dose", "result": "statistically significant improvement in relief of itch"}, {"measurement": "Mean difference Serlopitant − Placebo (SE) in change of average itch VAS score from baseline by repeated measures analysis", "setting": "[5]; Week 2, 95% CI (−1.5, −0.2), p 0.0111", "result": "−0.9 (0.34)"}, {"measurement": "Mean difference Serlopitant − Placebo (SE) in change of average itch VAS score from baseline by repeated measures analysis", "setting": "[5]; Week 4, 95% CI (−1.8, −0.1), p 0.0248", "result": "−1.0 (0.43)"}, {"measurement": "Mean difference Serlopitant − Placebo (SE) in change of average itch VAS score from baseline by repeated measures analysis", "setting": "[5]; Week 8, 95% CI (−2.6, −0.7), p 0.0005", "result": "−1.7 (0.47)"}, {"measurement": "adverse event diarrhea (most common adverse events)", "setting": "[5]; 5 mg once daily, 8 weeks", "result": 11, "unit": "%"}, {"measurement": "adverse event nasopharyngitis (most common adverse events)", "setting": "[5]; 5 mg once daily, 8 weeks", "result": 17, "unit": "%"}, {"measurement": "intensity of treatment-emergent adverse events", "setting": "[5]; 5 mg once daily, 8 weeks", "result": "generally mild or moderate"}, {"measurement": "tolerability and safety", "setting": "[5]; 5 mg once daily, 8 weeks", "result": "well tolerated and safe"}, {"measurement": "improvement in pruritus on the IGA vs placebo", "setting": "[5]; once-daily 5 mg dose", "result": "greater improvement"}, {"measurement": "4-point responder rate with respect to the average itch VAS score", "setting": "[5]; once-daily 5 mg dose, Week 8, placebo 25%", "result": 54, "unit": "%"}, {"measurement": "4-point responder rate with respect to the worst itch NRS score", "setting": "[5]; once-daily 5 mg dose, Week 8, placebo 26%", "result": 47, "unit": "%"}, {"measurement": "proportion of subjects reporting “no/mild pruritus” on the VRS", "setting": "[5]; once-daily 5 mg dose, Week 8, placebo 28.9%", "result": 54.4, "unit": "%"}, {"measurement": "proportion of subjects reporting improvement in pruritus on the PGA", "setting": "[5]; once-daily 5 mg dose, Week 8, placebo 54.3%", "result": 82.5, "unit": "%"}, {"measurement": "decrease in the average itch VAS score from Baseline compared to placebo", "setting": "[5]; once-daily 5 mg dose, Weeks 2, 4, and 8", "result": "statistically significant decrease"}, {"measurement": "improvement in the worst itch VAS score from Baseline to Week 8 vs placebo", "setting": "[5]; once-daily 5 mg dose, p=0.0024", "result": "statistically significantly, greater improvement"}, {"measurement": "decrease in the average itch NRS score from Baseline to Week 8 vs placebo", "setting": "[5]; once-daily 5 mg dose, p=0.0069", "result": "statistically significantly greater decrease"}]}]}
